Residues, ends and D or L forms follow the SMILES beside them.

The first data set is described as follows: physchem. As to conditions: water.
Procedure: Each amino acid or peptide was weighed. Water was gradually added at room temperature and the solution was vortexed. After each addition of water, the solution was sampled and evaluated under light microscopy; this process was repeated until no visible particles were detected and the concentration was calculated and determined as the solubility limit of the peptide in water.
As to `N[C@@H](Cc1ccc(O)cc1)C(=O)N[C@@H](Cc1ccccc1)C(=O)O` [YF] (H-Tyr-Phe-OH), the solubility is greater than 1000 mg/mL.

`N[C@@H](Cc1ccc(O)cc1)C(=O)N[C@@H](Cc1ccc(O)cc1)C(=O)O` [YY] (H-Tyr-Tyr-OH) yielded a solubility greater than 1000 mg/mL.

The next data set can be described thus: Solubility limit in water (gradual water addition, vortex, light microscopy).
Conditions: not given
Regarding `N[C@@H](Cc1ccccc1)C(=O)N[C@@H](Cc1ccccc1)C(=O)N[C@@H](Cc1ccccc1)C(=O)O` [FFF, reference compound] (H-Phe-Phe-Phe-OH), the solubility is less than 1 mg/mL.

In turn, `N[C@@H](Cc1ccccc1)C(=O)N[C@@H](Cc1ccccc1)C(=O)N[C@@H](Cc1ccc(O)cc1)C(=O)O` [FFY] (H-Phe-Phe-Tyr-OH) registered a solubility greater than 250 mg/mL.

The compound `N[C@@H](Cc1ccccc1)C(=O)N[C@@H](Cc1ccc(O)cc1)C(=O)N[C@@H](Cc1ccccc1)C(=O)O` [FYF, reference compound] (H-Phe-Tyr-Phe-OH) displayed a solubility of less than 5 mg/mL.

Compound `N[C@@H](Cc1ccccc1)C(=O)N[C@@H](Cc1ccc(O)cc1)C(=O)N[C@@H](Cc1ccc(O)cc1)C(=O)O` [FYY] (H-Phe-Tyr-Tyr-OH) yielded a solubility greater than 1000 mg/mL.

Regarding `N[C@@H](Cc1ccccc1)C(=O)N[C@@H](Cc1ccc(O)cc1)C(=O)O` [FY] (H-Phe-Tyr-OH), the solubility is greater than 1000 mg/mL.

Take `N[C@@H](Cc1ccc(O)cc1)C(=O)N[C@@H](Cc1ccccc1)C(=O)N[C@@H](Cc1ccccc1)C(=O)O` [YFF] (H-Tyr-Phe-Phe-OH): the solubility was greater than 250 mg/mL.

For `N[C@@H](Cc1ccc(O)cc1)C(=O)N[C@@H](Cc1ccccc1)C(=O)N[C@@H](Cc1ccc(O)cc1)C(=O)O` [YFY] (H-Tyr-Phe-Tyr-OH), the solubility was greater than 1000 mg/mL.

`N[C@@H](Cc1ccc(O)cc1)C(=O)N[C@@H](Cc1ccc(O)cc1)C(=O)N[C@@H](Cc1ccccc1)C(=O)O` [YYF] (H-Tyr-Tyr-Phe-OH) registered a solubility greater than 1000 mg/mL.

`N[C@@H](Cc1ccc(O)cc1)C(=O)N[C@@H](Cc1ccc(O)cc1)C(=O)N[C@@H](Cc1ccc(O)cc1)C(=O)O` [YYY, Tyr-Tyr-Tyr] (H-Tyr-Tyr-Tyr-OH) showed a solubility greater than 1000 mg/mL.

Assay in the next data set: not given
As to conditions: in water; marked (literature); cited from earlier work.
For `N[C@@H](Cc1ccccc1)C(=O)O` [F, phenylalanine], the solubility is listed as 29.6 (literature) milligram/milliliter.

The values are drawn from patent publication US20260109870A1, “PEPTIDE-BASED NON-CRYSTALLINE MATERIALS AND COMPOSITIONS AND PROCESSES FOR OBTAINING SAME” (Ramot at Tel-Aviv University Ltd., priority 2022, published 2026).
